According to article PMC11099041, “Tissue distribution and retention drives efficacy of rapidly clearing VHL-based PROTACs” (Communications Medicine, 2024):
Read-outs that look alike come from different tables or passages of the source. Values belong to the compound of their own block, whether it stands above or below them.

Key:
[1] = Protein binding by equilibrium dialysis (plasma, tissue homogenates, DPBS); assay type: in vitro ADME, rat; conditions: rat, plasma
Description: Control plasma was purchased from BioIVT, Hicksville, New York. Pooled plasma was obtained from at least three rats with K2EDTA as the anticoagulant. Control plasma was used to test the suitability of the system and for positive control analysis. Dulbecco’s phosphate-buffered saline (DPBS) (Millipore Sigma, St Louis, Missouri) was used to test the suitability of the system and as the receiver side of the dialysis device. […] The stock solution was added to the matrix (plasma or DPBS) and swirled to mix. The fortified matrix was then incubated at 37 °C for 15 min. Triplicate aliquots of the fortified matrix were analyzed by LSC.
The high throughput dialysis apparatus, model HTD96b, was used (HTDialysis LLC, Gales Ferry, Connecticut). Prior to assembly, dialysis membrane strips (molecular weight cutoff of 6–8 kDa) were hydrated, and the Teflon bars were assembled according to manufacturer’s instructions, with dialysis membrane strips laid between bars creating two compartments per well. The assembled unit was locked in place in the steel base plate. A 150 µL aliquot of each fortified matrix (tissue homogenates, plasma, or DPBS) and DPBS were added to the donor and receiver side of the HTD wells in a Teflon plate, respectively, and the plate was sealed. Samples were incubated at 37 °C and rotated at 300 rpm for 7 hours. After incubation, the seal was removed, and tissue homogenates, plasma, or DPBS and dialysate from each device insert were analyzed by LSC. All protein binding determinations were performed in triplicate.
Dialysis was performed accordingly. The radioactivity concentration of the test article in the donor and receiver samples was determined by LSC (count time 60 min) for the calculation of protein binding. […] After the designated time, aliquots of the individual donor and receiver samples were removed and analyzed by LSC. The remaining sample volume was stored at −20 °C.
Dialysis was performed accordingly.
Protein binding by equilibrium dialysis:1 PercentDrugBound=(Cm-Cd)/Cm×100 2 PercentDrugUnbound=100-PercentBound where: Cd, concentration of test article in dialysate at equilibrium; Cm, Concentration of test article in matrix at equilibrium.
Recovery from equilibrium dialysis:3 Recovery(%)=(Cm×Vm)+(Cd×Vd)/(Co×Vo)×100 where: Cm, Concentration of test article in matrix at equilibrium; Cd, Concentration of test article in dialysate at equilibrium; Co, Original concentration of test article in matrix prior to loading the dialysis device; Vm, Nominal volume of the matrix at equilibrium; Vd, Nominal volume of the dialysate at equilibrium; Vo, Nominal volume of the original matrix added to the dialysis device.

[2] = In vitro metabolism in rat hepatocytes; conditions: 5 µM A947, 3 hr
Description: (§1) Hepatocyte cell count was ~1.1–1.8 × 10^6 cells/mL. After 3 h, samples were quenched with 3 volumes of acetonitrile, vortex mixed, and centrifuged. The supernatant (5 µL) was analyzed by LC-MS using a Kinetex EVO C18 column (1.7 μm, 2.1 × 150 mm) at 40 °C with a flow rate of 0.4 mL/min. Mobile phase A was 20 mM ammonium acetate in water, and mobile phase B was acetonitrile. The column was initially held at 5% B for 2 min, increased to 75% B over 33 minutes, and then increased to 95% B over 3 min, where it was maintained for 3 minutes before returning to 5% B over 0.5 min for re-equilibration. Mass spectrometry data was acquired using positive ion mode and data-dependent MS^2 acquisition.

[3] = In vitro metabolism in human hepatocytes; conditions: human hepatocytes, 5 µM A947, 3 hr
Description: as §1

[4] = Metabolite profiling in rat bile, urine and feces (radio-HPLC, LC-HRMS); assay type: in vivo; conditions: for %rad in feces: pooled feces
Description: Tissue homogenate samples at 24 hours were extracted as plasma samples. […] The pooled urine samples containing 10% MeOH were analyzed by liquid chromatography-high resolution mass spectrometry (LC-HRMS).
The pooled bile sample containing 10% MeOH was analyzed by LC-HRMS.
Feces samples obtained from BDC and intact rats were pooled separately across time intervals for each animal (5% w/v) and further pooled across animals for each group to generate a 0–68 hour pooled sample. Approximately 1–2 g of each pooled feces sample was extracted as the same protocol used for plasma samples. […] The reconstituted samples were analyzed by LC-HRMS.
The reconstituted samples were analyzed by LC-HRMS, with eluent fractions collected at 10-second intervals into 96-well plates containing solid scintillant. Radioactivity in each well was determined using TopCount analysis, and radiochemical profiles were generated based on radioactivity counts. Structural elucidation was performed based on mass spectral interpretation to identify metabolites.
For metabolite profiling and identification, LC-MS analysis used a Shimadzu/Nexera LC-30 AD liquid chromatographic system and a ThermoFisher Scientific Q Exactive with a positive/negative heated electrospray interface. The column was a Waters XSelect HSS T3 4.6 mm × 250 mm, 3.5 µm and maintained at 40 °C. The mobile phases were (A) 20 mM ammonium acetate in water and (B) acetonitrile. […] The flow was 1 mL/min and split 20% to mass analysis and 80% collected for radioactivity counting. Mass spectrometry data was acquired with full scans at a resolution of 70,000 for a m/z range of 300 to 1500, and MS/MS scans were acquired at a resolution of 17,500. The mass spectrometer was operated with a normalized collision energy of 30 (ESI+), S-Lens RF level of 60, source voltage of +3.5 kV, Capillary temperature of 320 °C, and Probe heater temperature of 300 °C.

[5] = human, 3 h, 5 µM
Description: as §1

[6] = male, Wistar Han, rat, 3 h, 5 µM
Description: as §1

[7] = IV 4 mg/kg, pooled 0–168-hour bile
[8] = Sprague Dawley, in vivo, iv, 4 mg/kg

Percent Unbound ([1]; 7 h, 3000 ng/mL): approximately 1.5%
fraction unbound at 7 h, 3000 ng/mL ([1]; Fu): 0.015
fraction unbound at 7 h, 3000 ng/mL ([1]; Percent Unbound): 0.0146
Compound: CC(=O)CC(c1ccccc1)c1c(O)c2ccccc2oc1=O (stereo not drawn) [14C-warfarin, warfarin, reference compound]

Estimated relative distribution percent of mass spectral abundance [2]: 0.2%
Estimated relative distribution percent of mass spectral abundance [3]: 0.04%
Compound: Cc1ncsc1-c1ccc(C(C)NC(=O)C2CC(O)CN2C(=O)C(c2cc(N3CCC(C(=O)O)CC3)no2)C(C)C)cc1 (stereo not drawn) [M3]

Compound: Nc1nnc(-c2ccccc2O)cc1N1CC2CCC(C1)N2c1ccnc(O)c1 [M5]
%Rad in bile [4, 7]: 1.49%
%rad in feces ([4]; IV 4 mg/kg): 1.86%
%rad in urine ([4]; IV 4 mg/kg, pooled urine): 7.53%
Estimated relative distribution percent of mass spectral abundance [5]: 0.1%

Compound: CC(C)C(C(=O)N1CC(O)CC1C(=O)O)c1cc(N2CCC(CN3CCC(OC4CC(Oc5cc(N6C7CCC6CN(c6cc(-c8ccccc8O)nnc6N)C7)ccn5)C4)CC3)CC2)no1 (stereo not drawn) [M8]
%Rad in bile [4, 8]: 3.47%

Compound: CC(C)C(C(=O)O)c1cc(N2CCC(CN3CCC(OC4CC(Oc5cc(N6C7CCC6CN(c6cc(-c8ccccc8O)nnc6N)C7)ccn5)C4)CC3)CC2)no1 (stereo not drawn) [M9]
%Rad in bile [4, 8]: 3.08%

Compound: Nc1nnc(-c2ccccc2O)cc1N1CC2CCC(C1)N2c1ccnc(OC2CC(OC3CCNCC3)C2)c1 (stereo not drawn) [M10]
%Rad in bile [4, 7]: 4.48%
Estimated relative distribution percent of mass spectral abundance [5]: 2.6%
Estimated relative distribution percent of mass spectral abundance [6]: 2.2%

Compound: Nc1nnc(-c2ccccc2O)cc1N1CC2CCC(C1)N2c1ccnc(OC2CC(O)C2)c1 (stereo not drawn) [M11]
%Rad in bile [4, 7]: 2.79%
%rad in feces ([4]; IV 4 mg/kg): 4.34%
%rad in urine ([4]; IV 4 mg/kg, pooled urine): 2.93%
Estimated relative distribution percent of mass spectral abundance [5]: 0.8%
Estimated relative distribution percent of mass spectral abundance [6]: 0.8%

Compound: Cc1ncsc1-c1ccc(C(C)NC(=O)C2CC(OC3OC(C(=O)O)C(O)C(O)C3O)CN2C(=O)C(c2cc(N3CCC(CN4CCC(OC5CC(Oc6cc(N7C8CCC7CN(c7cc(-c9ccccc9OC9OC(C(=O)O)C(O)C(O)C9O)nnc7N)C8)ccn6)C5)CC4)CC3)no2)C(C)C)cc1 (stereo not drawn) [M17]
%rad in urine [4, 8]: 21.86%

Compound: Nc1nnc(-c2ccccc2O)cc1N1CC2CCC(C1)N2c1ccnc(OC2CC(OC3CCN(C=O)CC3)C2)c1 (stereo not drawn) [M18]
%Rad in bile [4, 8]: 6.31%
